Tests used:
Type in all cases: functional
[1] = tested on: Microbotryum violaceum; assay: Antimicrobial activity against Microbotryum violaceum 5 mg/ml
[2] = tested on: Microbotryum violaceum; assay: Antimicrobial activity against Microbotryum violaceum 1 mg/ml
[3] = tested on: [Chlorella] fusca; assay: Antimicrobial activity against Chlorella fusca at 1 mg/ml; details: Scenedesmus fuscus; read-out: IZ
[4] = tested on: Priestia megaterium; assay: Antimicrobial activity against Bacillus megaterium 1mg/ml
[5] = tested on: Priestia megaterium; assay: Antimicrobial activity against Bacillus megaterium 5 mg/ml
[6] = tested on: [Chlorella] fusca; assay: Antimicrobial activity against Chlorella fusca at 5 mg/ml; details: Scenedesmus fuscus; read-out: IZ
[7] = tested on: [Chlorella] fusca; assay: Antimicrobial activity against Chlorella fusca at 8 mg/ml; details: Scenedesmus fuscus; read-out: IZ
[8] = tested on: [Chlorella] fusca; assay: Antimicrobial activity against Chlorella fusca at 2 mg/ml; details: Scenedesmus fuscus; read-out: IZ

| Compound | inhibition zone (IZ) [1] | inhibition zone (IZ) [2] | zone of inhibition at 1000 µg/mL [3] | inhibition zone (IZ) [4] | inhibition zone (IZ) [5] | zone of inhibition at 5000 µg/mL [6] | zone of inhibition at 8000 µg/mL [7] | zone of inhibition at 2000 µg/mL [8] |
| --- | --- | --- | --- | --- | --- | --- | --- | --- |
| Cc1ccc2c3c1[C@@H](O)OC[C@@]3(C)[C@H](O)C2(C)C | 6 mm | 0 mm | 0 mm | 0 mm | 6 mm | 12 mm |  |  |
| Cc1ccc2c3c1COC[C@@]3(C)[C@H](O)C2(C)C |  |  |  |  |  |  | 5 mm | 5 mm |
| CO[C@H]1OC[C@@]2(C)[C@H](OC(C)=O)C(C)(C)[C@@H]3[C@@H](OC(C)=O)C[C@@H](C)[C@H]1[C@@]32O | 0 mm | 0 mm | 0 mm | 0 mm | 0 mm | 0 mm |  |  |
| CO[C@H]1OC[C@]2(C)c3c(ccc(C)c31)C(C)(C)[C@H]2O | 8 mm | 0 mm | 0 mm | 0 mm | 6 mm | 6 mm |  |  |
| CCO[C@H]1OC[C@]2(C)c3c(ccc(C)c31)C(C)(C)[C@H]2O |  |  |  |  |  |  | 6 mm | 5 mm |
| C[C@@H]1CC=C2[C@@H]3[C@H]1CC(O)[C@@]3(C=O)CC2(C)C (some centres not stated) | 0 mm | 0 mm | 0 mm | 0 mm | 0 mm | 10 mm |  |  |
| C[C@@H]1C[C@H](O)[C@H]2C(C)(C)C[C@]3(C)CO[C@H](O)[C@@H]1[C@@]23O | 0 mm | 0 mm | 0 mm | 0 mm | 0 mm | 0 mm |  |  |
| Cc1ccc2c3c1C(=O)OC[C@@]3(C)[C@H](O)C2(C)C | 0 mm | 0 mm | 0 mm | 0 mm | 6 mm | 8 mm |  |  |
| C[C@@H]1CCC2=C3C1=COC[C@@]3(C)[C@H](O)C2(C)C | 5 mm | 0 mm | 0 mm | 0 mm | 0 mm | 6 mm |  |  |
| C[C@@H]1C[C@H](O)C2=C3C1=COC[C@@]3(C)[C@H](O)C2(C)C | 5 mm | 0 mm | 0 mm | 0 mm | 0 mm | 7 mm |  |  |
| CO[C@H]1OC[C@@]2(C)[C@H](O)C(C)(C)[C@@H]3[C@@H](O)C[C@@H](C)[C@H]1[C@@]32O | 0 mm | 0 mm | 0 mm | 0 mm | 0 mm | 0 mm |  |  |
| C[C@@H]1C[C@H](O)[C@@H]2C(=C1C=O)[C@@](C)(CO)[C@H](O)C2(C)C |  |  |  |  |  |  | 6 mm | 0 mm |
| C[C@@H]1C[C@H](O)[C@@H]2C3=C1[C@@H](O)OC[C@@]3(C)[C@H](O)C2(C)C |  |  |  |  |  |  | 7 mm | 0 mm |

From ChEMBL document CHEMBL1158707, “Botryane metabolites from the fungus Geniculosporium sp. isolated from the marine red alga Polysiphonia” (2005)
